Experimental data taken from article PMC12040169 (PLOS Biology, 2025).

Experiment: in vitro
Conditions: human, hela cells, % viability

Row | Compound | viability at 28.5 h, 10 µM [%]
1 | CC(=O)c1ccc(NS(=O)(=O)c2cc(C(=O)Nc3ccccc3C(=O)O)ccc2Br)cc1 [CBK263203] | 97.2
2 | c1ccc(CSc2nnc3ccc(-c4ccncc4)nn23)cc1 [CBK287681] | 86.5
3 | Cc1ccc([N+](=O)[O-])cc1NC(=O)CSc1nnc(Cc2ccccc2)o1 [CBK265889] | 116
4 | CN1CCC(C(=O)Nc2cccc(Cn3cccn3)c2)C1 (centres unmarked) [CBK281991] | 100
5 | Cc1cc(C)c(OCC(=O)Nc2cc(-c3nc4ncccc4o3)ccc2C)c(Cl)c1 [CBK072887] | 92.7
6 | Cc1cc(C)n(CCC(=O)N2C[C@@H]3CCCCN(CC4CC4)[C@@H]3C2)n1 [CBK285505] | 102
7 | Cc1sc2ncnc(SCC(=O)Nc3sc4c(c3C#N)CCCC4)c2c1-c1ccccc1 [CBK265938] | 93.3
8 | O=C(Nc1ccc2ccccc2c1)N1CCN(C(=O)C2CCCO2)CC1 (centres unmarked) [CBK044043] | 96.6
9 | COc1cccc2ncn(CCc3n[nH]c(N)n3)c(=O)c12 [CBK307301] | 90.8
10 | O=S1(=O)N=C(c2c(O)nc3ccccc3c2O)Nc2ccccc21 [CBK019929] | 90.7
11 | CC(=O)Nc1ccc(OC(=O)CSc2nc(C)cc(C)n2)cc1 [CBK266707] | 86.6
12 | CC(=O)Nc1ccc(NC2SC(=O)N(c3ccccc3)C2=O)cc1 (centres unmarked) [CBK085110] | 88.4
13 | O=C(O)c1ccc(S(=O)(=O)N(CC2CC=CCC2)CC2CCCO2)cc1 (centres unmarked) [CBK286685] | 101
14 | Cc1cc(C)nc(NS(=O)(=O)c2ccc(OC(F)(F)F)cc2)c1 [CBK044711] | 90.7
15 | O=C(NCc1ccccn1)C1CC(=O)N(c2ccccc2)C1 (centres unmarked) [CBK270175] | 88.7
16 | CCOc1cccc(-c2cncc(N(C)CCN(C)C)n2)c1 [CBK065977] | 102
17 | COc1cccc(/C=C2/SC(=S)NC2=O)c1OCCCOc1ccc(C)cc1C [CBK264441] | 94.8
18 | CC(NS(=O)(=O)N(C)C)c1ccccc1 (centres unmarked) [CBK263819] | 96.6
19 | Cn1ccnc1CN1CCN(Cc2nccn2C)CC1 [CBK266206C] | 98.7
20 | O=C(CO)N1CC2(CCN(CCn3cccc3)CC2)c2ccccc21 [CBK143953] | 86.9
21 | CC(C)Nc1cc(Sc2ccc(Br)cc2)ncn1 [CBK089502] | 103
22 | COc1ccccc1OCCOc1ccc(/C=N/n2cnnc2)cc1 [CBK263295] | 106

Row | Compound | viability at 28.5 h, 10 µM [%]
23 | Cc1nc(C)c(C(=O)NCc2cccnc2N(C)C2CCCCC2)s1 [CBK306885] | 95
24 | N#Cc1c2c(c3nncn3c1Nc1ccccc1)CCCC2 [CBK288197] | 97.7
25 | Cc1ccc(C(=O)NCc2cccnc2)c(N2CCN(C(=O)c3ccco3)CC2)n1 [CBK076444] | 83.9
26 | COc1ccc2[nH]cc(CCNC(=O)C3CC(=O)c4ccccc43)c2c1 (centres unmarked) [CBK116221] | 97.3
27 | Cn1c(C(=O)Nc2ccc(Cn3cncn3)cc2)cc2cc(F)ccc21 [CBK281584] | 104
28 | COc1cccc(C(NC(=O)Cc2ccc(-n3nnnc3C)cc2)c2ccccc2)c1 (centres unmarked) [CBK285605] | 93.4
29 | Cc1nnnn1CC(=O)Nc1nn(C)c2cccc(N3CCOCC3)c12 [CBK307335] | 97
30 | c1ccc2cc(-c3cn4ccnc4c(Nc4ccc(N5CCOCC5)cc4)n3)ccc2c1 [CBK066359] | 108
31 | Cc1nnc(SCC2=NN(c3nc4ccccc4[nH]3)C(=O)C2)s1 [CBK293979] | 108
32 | COc1ccc2c(c1)CC(=O)NC21CCN(C(=O)CCCC(=O)O)CC1 [CBK047208] | 90.3
33 | Nc1ncc(-c2cccc(C(=O)O)c2)nc1-c1ccc(O)cc1 [CBK200420] | 107
34 | COc1ccccc1CC(=O)N(Cc1cccnc1)C[C@@H]1CCC(=O)N1 [CBK307504] | 95.7
35 | CC(C)c1nnc(NS(=O)(=O)c2ccc(N)cc2)s1 [CBK050163] | 101
36 | Cc1csc(-c2ccc(C(=O)N(C)CCN(C)C)c(NCC3CC3)n2)c1 [CBK106279] | 84.2
37 | CCn1nc(C)c(CN2CCCC(c3cc4cccnc4[nH]3)C2)c1C (centres unmarked) [CBK284977] | 107
38 | NS(=O)(=O)c1ccc(NC(=S)NNC(=O)c2cc(Br)ccc2Cl)cc1 [CBK266970] | 89.3
39 | O=C(O)c1ccccc1S(=O)(=O)CC(=O)N1CCCCC1 [CBK287180] | 89.1
40 | Cc1cccc(CCN2CCC3(CC2)NCCc2c3[nH]c3ccc(Br)cc23)c1 [CBK039280] | 83.3
41 | CSc1nnc(CC2CCN(C(=O)c3cc(C)c(C)cc3C)CC2)n1C [CBK307467] | 99
42 | CCCn1cnc2c1CN(C(C)=O)[C@H](C(=O)OC)C2 [CBK288995] | 101
43 | O=C(Nc1ccc(S(=O)(=O)NCCc2ccccc2)cc1)c1ccc2c(c1)OCO2 [CBK265591] | 108
44 | FC(F)(F)c1ccnc(Sc2ccncc2)c1 [CBK093793] | 92.3

Row | Compound | viability at 28.5 h, 10 µM [%]
45 | CC(=O)c1sc2nc(-c3ccccc3)nc(C)c2c1N [CBK115368] | 90.5
46 | O=[N+]([O-])c1ccc(/C=N/n2c(S)nnc2COc2ccccc2)cc1 [CBK265240] | 91.5
47 | OCc1ccc(CN2C[C@H](O)C[C@H]2c2nc(-c3ccc(F)cc3)no2)o1 [CBK288848] | 106
48 | COc1ccc(CCN2C(=O)CC(C(=O)O)S/C2=N\c2ccc(Cl)cc2)cc1OC (centres unmarked) [CBK263286] | 93.9
49 | O=c1[nH]cc(CN2CCCN(S(=O)(=O)c3ccc(C(F)(F)F)cc3Cl)CC2)c(=O)[nH]1 [CBK062975] | 106
50 | Cc1cc(N2CCN(CC(=O)c3ccc(Cl)cc3)CC2)c2ccccc2n1 [CBK066868] | 106
51 | O=C(CSCc1ccc(Br)cc1)Nc1ccc(S(=O)(=O)N2CCOCC2)cc1 [CBK267845] | 97.1
52 | Cc1cc2c(s1)c1cnn(CCN3CCCC3)c(=O)c1n2C [CBK284180] | 90
53 | CSCCC(C(=O)O)N1CNC(=S)NC1 (centres unmarked) [CBK011382] | 92.3
54 | CNC(=O)c1ccc(-c2ccc(CNC(=O)C(C)Oc3ccc(C)c(C)c3)cc2)nc1C (centres unmarked) [CBK286014] | 104
55 | Nc1ncc(-c2cc(C(F)(F)F)cc(C(F)(F)F)c2)nc1N1CCC[C@@H]1CO [CBK063501] | 93.3
56 | Cc1ccc2oc(CN3CCC(O)(c4cccnc4)CC3)c(C)c2c1 [CBK282816] | 94.7
57 | Cc1nc(NCCc2cnc(=O)n(C)c2O)cc(C2CCOC2)n1 (centres unmarked) [CBK307559] | 93.2
58 | CCN1CCC(NC(=O)CSc2nc3ccccc3n2CCOC)CC1 [CBK306100] | 118
59 | O=[N+]([O-])c1cc(Nc2ncnc3ccccc23)cc(Oc2ccccc2)c1 [CBK293928] | 90.3
60 | COc1cccc2cc(C(=O)NCCCSC)oc12 [CBK149793] | 99.6
61 | CCOC(=O)COc1ccc2nsnc2c1Cl [CBK025603] | 91.4
62 | OCc1ncccc1OCCOC1CCCCO1 (centres unmarked) [CBK045702] | 97.5
63 | Cn1nnnc1-c1cccc(NC(=O)c2ccc(Oc3ccccc3)cc2)c1 [CBK297872] | 81.6
64 | CC(C)/C=N/N=C1\NC(=O)CS1 [CBK023706] | 90.7
65 | COc1ccc(-c2cnn(-c3ccc(OC)cc3)n2)cc1 [CBK112745] | 106
66 | O=C(c1ccc(-c2nccnc2NCc2cccs2)cc1)N1CCOCC1 [CBK037059] | 98.8

Row | Compound | viability at 28.5 h, 10 µM [%]
67 | O=C(O)C(Cc1ccccc1)N1C(=O)/C(=C/c2cccc([N+](=O)[O-])c2)SC1=S (centres unmarked) [CBK263078] | 98.4
68 | CC(=O)Nc1ccc(S(=O)(=O)Oc2ccc(C3C4=C(CC(C)(C)CC4=O)N=C4c5ccccc5C(=O)C43)cc2)cc1 (centres unmarked) [CBK262964] | 93.7
69 | COc1ccccc1NC(=S)NCCc1ccccn1 [CBK265358] | 91.2
70 | Fc1ccc(Sc2cccc(C(F)(F)F)n2)cc1 [CBK115240] | 97.5
71 | O=C(c1nc2ccccn2c1CN1CCCC(O)C1)N1CCOCC1 (centres unmarked) [CBK307237] | 88.4
72 | Cc1ccc(S(=O)(=O)N2CCSC2C(=O)O)cc1 (centres unmarked) [CBK286964] | 86.8
73 | O=C(Cc1coc2ccc3ccccc3c12)NNC(=O)c1ccccc1[N+](=O)[O-] [CBK268763] | 90.6
74 | Cc1cc(C)nc(N/C(=N\C(=O)c2ccccc2)N2CCC(C(N)=O)CC2)n1 [CBK263910] | 99.4
75 | CCC1CCCCN1C(=O)c1oc2ccccc2c1C (centres unmarked) [CBK078548] | 107
76 | Cc1oc2ccc(O)cc2c1C(=O)NC(C)(C)CN1CCCC(C)C1 (centres unmarked) [CBK282601] | 105
77 | O=C(O)c1cccc(NS(=O)(=O)c2cc3ccccc3o2)c1 [CBK200423] | 97.4
78 | O=C(O)c1c(NS(=O)(=O)Cc2ccccc2[N+](=O)[O-])sc2c1CCCC2 [CBK024819] | 106
79 | Nc1ccc(S(=O)(=O)O)c2cccc(S(=O)(=O)O)c12 [CBK261492N] | 99.6
80 | O=C(CCn1c(C(F)F)cc2cccnc21)NCc1ccc(F)cc1 [CBK285067] | 102
81 | CCN(CCN1CCOCC1)C(=O)c1[nH]c2c(F)cccc2c1C [CBK306772] | 90.3
82 | CC(C)CCNCc1ccc(-c2cn(CC(=O)NCCc3ccccc3)nn2)cc1 [CBK164740] | 95.9
83 | COC(=O)Cn1cnc2sc(C(=O)Nc3ccccc3OC)c(C)c2c1=O [CBK071808] | 109
84 | COc1ccc(Cn2nc(NC(=O)Nc3ccc(N(C)C)cc3)c3ccccc32)cc1 [CBK048529] | 90
85 | CCCNC(=O)c1ccc(C)c(NC(=O)NC2CCOC2)c1 (centres unmarked) [CBK306794] | 95.8
86 | O=C(Nc1ccc(-c2nc(-c3ccccc3)c3cc(NC(=O)c4cccs4)ccc3n2)cc1)c1cccs1 [CBK261547] | 86
87 | CCc1cccc(C)c1NC(=O)CSc1nnc(-c2cccnc2)n1C [CBK267582] | 88.4

Same assay, conditions: human, hela cells, % viability, bulk resorufin, single well

Row | Compound | viability at 28.5 h, 10 µM [%]
88 | COc1cc(C(=O)Nc2ccc3c(c2)COC2(CCNCC2)O3)cc(OC)c1OC [CBK091531T] | 92.3
89 | COc1ccc(-c2ccc3c(c2)OC2(CCNCC2)O3)c(OC)c1 [CBK091451] | 93.2
